{
  "source": "patent US20050019366A1",
  "about": "“Drug-coated stents and methods of use therefor” (priority 2002, published 2005)",
  "origin": "cited, not measured here",
  "system": "restenosis after angioplasty",
  "conditions": "probucol 500 mg; twice daily for four weeks prior and six months after angioplasty",
  "data": [
    {"smiles": "CC(C)(Sc1cc(C(C)(C)C)c(O)c(C(C)(C)C)c1)Sc1cc(C(C)(C)C)c(O)c(C(C)(C)C)c1", "note": "[Probucol, probucol]", "values": [
      {"measurement": "reduction of the rate of restenosis after angioplasty", "result": "~50", "unit": "%"}
    ]}
  ]
}
